# Literature values, collected in PubChem BioAssay AID1259409 (Chemical Carcinogenesis Research Information System (CCRIS), 2018).
# System: rodent chemically induced tumor inhibition, incidence and multiplicity
# Assay: CCRIS tumor inhibitor studies
# Conditions: Route [Inhibitor]: ORAL
compound,measurement,setting,value
S=C=NCCc1ccccc1,"tumour outcome (control, treated, inhibition, significance)","Carcinogen: DIETHYLNITROSAMINE, 55-18-5, N-METHYL-N-NITROSOUREA, 684-93-5, N-BUTYL-N-(4-HYDROXYBUTYL)NITROSAMINE, 3817-11-6, DIMETHY, Carcinogen: DIETHYLNITROSAMINE, 55-18-5, N-METHYL-N-NITROSOUREA, 684-93-5, N-BUTYL-N-(4-HYDROXYBUTYL)NITROSAMINE, 3817-11-6, DIMETHY, Dose [Inhibitor]: 0, 0.1% IN THE DIET FOR 30 D BEGINNING 1 DAY PRIOR TO CARCINOGEN TREATMENT (STUDY DURATION: 28 WK), Species: RAT, Strain/Sex: F344/MALE, Target Tissue: Type of Lesion: LARGE INTESTINE: ADENOMA, Dose [Carcinogen]: 100 MG/KG BW DEN ONCE FOLLOWED BY 20 MG/KG BW MNU 4 TIMES AND 0.05% BBN IN DRINKING WATER DURING FIRST 2 WK THEN 40 MG/K, Promoter: NONE USED","27%, 54%, -100%, not significant"
same,"tumour outcome (control, treated, inhibition, significance)","Carcinogen: DIETHYLNITROSAMINE, 55-18-5, N-METHYL-N-NITROSOUREA, 684-93-5, N-BUTYL-N-(4-HYDROXYBUTYL)NITROSAMINE, 3817-11-6, DIMETHY, Carcinogen: DIETHYLNITROSAMINE, 55-18-5, N-METHYL-N-NITROSOUREA, 684-93-5, N-BUTYL-N-(4-HYDROXYBUTYL)NITROSAMINE, 3817-11-6, DIMETHY, Dose [Inhibitor]: 0, 0.1% IN THE DIET FOR 30 D BEGINNING 1 DAY PRIOR TO CARCINOGEN TREATMENT (STUDY DURATION: 28 WK), Species: RAT, Strain/Sex: F344/MALE, Target Tissue: Type of Lesion: SMALL INTESTINE: CARCINOMA, Dose [Carcinogen]: 100 MG/KG BW DEN ONCE FOLLOWED BY 20 MG/KG BW MNU 4 TIMES AND 0.05% BBN IN DRINKING WATER DURING FIRST 2 WK THEN 40 MG/K, Promoter: NONE USED","7%, 23%, -229%, not significant"
same,"tumour outcome (control, treated, inhibition, significance)","Carcinogen: DIETHYLNITROSAMINE, 55-18-5, N-METHYL-N-NITROSOUREA, 684-93-5, N-BUTYL-N-(4-HYDROXYBUTYL)NITROSAMINE, 3817-11-6, DIMETHY, Carcinogen: DIETHYLNITROSAMINE, 55-18-5, N-METHYL-N-NITROSOUREA, 684-93-5, N-BUTYL-N-(4-HYDROXYBUTYL)NITROSAMINE, 3817-11-6, DIMETHY, Dose [Inhibitor]: 0, 0.1% IN THE DIET FOR 30 D BEGINNING 1 DAY PRIOR TO CARCINOGEN TREATMENT (STUDY DURATION: 28 WK), Species: RAT, Strain/Sex: F344/MALE, Target Tissue: Type of Lesion: THYROID: CARCINOMA, Dose [Carcinogen]: 100 MG/KG BW DEN ONCE FOLLOWED BY 20 MG/KG BW MNU 4 TIMES AND 0.05% BBN IN DRINKING WATER DURING FIRST 2 WK THEN 40 MG/K, Promoter: NONE USED","7%, 8%, -14%, not significant"
same,"tumour outcome (control, treated, inhibition, significance)","Carcinogen: DIETHYLNITROSAMINE, 55-18-5, N-METHYL-N-NITROSOUREA, 684-93-5, N-BUTYL-N-(4-HYDROXYBUTYL)NITROSAMINE, 3817-11-6, DIMETHY, Carcinogen: DIETHYLNITROSAMINE, 55-18-5, N-METHYL-N-NITROSOUREA, 684-93-5, N-BUTYL-N-(4-HYDROXYBUTYL)NITROSAMINE, 3817-11-6, DIMETHY, Dose [Inhibitor]: 0, 0.1 IN THE DIET FOR 30 D BEGINNING 1 DAY PRIOR TO CARCINOGEN TREATMENT (STUDY DURATION: 28 WK), Species: RAT, Strain/Sex: F344/MALE, Target Tissue: Type of Lesion: SMALL INTESTINE: ADENOMA, Dose [Carcinogen]: 100 MG/KG BW DEN ONCE FOLLOWED BY 20 MG/KG BW MNU 4 TIMES AND 0.05% BBN IN DRINKING WATER DURING FIRST 2 WK THEN 40 MG/K, Promoter: NONE USED","33%, 31%, 6%, not significant"
same,"tumour outcome (control, treated, inhibition, significance)","Carcinogen: DIETHYLNITROSAMINE, 55-18-5, N-METHYL-N-NITROSOUREA, 684-93-5, N-BUTYL-N-(4-HYDROXYBUTYL)NITROSAMINE, 3817-11-6, DIMETHY, Carcinogen: DIETHYLNITROSAMINE, 55-18-5, N-METHYL-N-NITROSOUREA, 684-93-5, N-BUTYL-N-(4-HYDROXYBUTYL)NITROSAMINE, 3817-11-6, DIMETHY, Dose [Inhibitor]: 0.1% IN THE DIET FOR 30 D BEGINNING 1 DAY PRIOR TO CARCINOGEN TREATMENT (STUDY DURATION: 28 WK), Species: RAT, Strain/Sex: F344/MALE, Target Tissue: Type of Lesion: URINARY BLADDER: CARCINOMA, Dose [Carcinogen]: 100 MG/KG BW DEN ONCE FOLLOWED BY 20 MG/KG BW MNU 4 TIMES AND 0.05% BBN IN DRINKING WATER DURING FIRST 2 WK THEN 40 MG/K, Promoter: NONE USED","7%, 0%, 100%, not significant"
same,"tumour outcome (control, treated, inhibition, significance)","Carcinogen: DIETHYLNITROSAMINE, 55-18-5, N-METHYL-N-NITRSOUREA, 684-93-5, N-BUTYL-N-(4-HYDROXYBUTYL)NITROSAMINE, 3817-11-6, DIMETHYL, Carcinogen: DIETHYLNITROSAMINE, 55-18-5, N-METHYL-N-NITRSOUREA, 684-93-5, N-BUTYL-N-(4-HYDROXYBUTYL)NITROSAMINE, 3817-11-6, DIMETHYL, Dose [Inhibitor]: 0, 0.1% IN THE DIET FOR 30 D BEGINNING 1 DAY PRIOR TO CARCINOGEN TREATMENT (STUDY DURATION: 28 WK), Species: RAT, Strain/Sex: F344/MALE, Target Tissue: Type of Lesion: URINARY BLADDER: PAPILLOMA, Dose [Carcinogen]: 100 MG/KG BW DEN ONCE FOLLOWED BY 20 MG/KG BW MNU 4 TIMES AND 0.05% BBN IN DRINKING WATER DURING FIRST 2 WK THEN 40 MG/K, Promoter: NONE USED","7%, 0%, 100%, not significant"
same,"tumour outcome (control, treated, inhibition, significance)","Carcinogen: N-BUTYL-N(4-HYDROXYBUTYL)NITROSAMINE (3817-11-6), Dose [Inhibitor]: 0.5 UMOL/G IN DIET BEGINNING 1 WK BEFORE CARCINOGEN EXPOSURE (STUDY DURATION: 16 WK), Species: RAT, Strain/Sex: WISTAR/MALE, Target Tissue: Type of Lesion: URINARY BLADDER: PAPILLOMA, Dose [Carcinogen]: 0.025% IN DRINKING WATER FOR 15 WK, Promoter: NONE USED","38/40 (95%), 26/30 (87%), 8%, not significant"
same,"tumour outcome (control, treated, inhibition, significance)","Carcinogen: N-BUTYL-N(4-HYDROXYBUTYL)NITROSAMINE (3817-11-6), Dose [Inhibitor]: 0.5 UMOL/G IN DIET BEGINNING 1 WK BEFORE CARCINOGEN EXPOSURE (STUDY DURATION: 16 WK), Species: RAT, Strain/Sex: WISTAR/MALE, Target Tissue: Type of Lesion: URINARY BLADDER: TRANSITIONAL CELL CARCINOMA, Dose [Carcinogen]: 0.025% IN DRINKING WATER FOR 15 WK, Promoter: NONE USED","4/40 (10%), 4/30 (13%), -30%, not significant"
same,"tumour outcome (control, treated, inhibition, significance)","Carcinogen: N-NITROSOBENZYLMETHYLAMINE, 937-40-6, Dose [Inhibitor]: 0, 3 UMOL/G DIET BEGINNING 2 WK PRIOR TO CARCINOGEN TREATMENT AND CONTINUING FOR 8 WK POST CARCINOGEN TREATMENT (STUDY D, Species: RAT, Strain/Sex: F344/MALE, Target Tissue: Type of Lesion: ESOPHAGUS: TUMOR, Dose [Carcinogen]: 0.5 MG/KG 1/WK FOR 15 WK, Promoter: NONE USED","100%, 13%, 87%, not calculated"
same,"tumour outcome (control, treated, inhibition, significance)","Carcinogen: N-NITROSOBENZYLMETHYLAMINE, 937-40-6, Dose [Inhibitor]: 0, 3 UMOL/G IN DIET BEGINNING 2 WK PRIOR TO CARCINOGEN TREATMENT AND CONTINUING FOR DURATION OF STUDY (STUDY DURATION: 2, Species: RAT, Strain/Sex: F344/MALE, Target Tissue: Type of Lesion: ESOPHAGUS: TUMORS, Dose [Carcinogen]: 0.5 MG/KG BW IN 0.1 ML OF DMSO 1/WK FOR 15 WK, Promoter: NONE USED","100%, 13%, 87%, not calculated"
same,"tumour outcome (control, treated, inhibition, significance)","Carcinogen: N-NITROSOBENZYLMETHYLAMINE, 937-40-6, Dose [Inhibitor]: 0, 6 UMOL/G DIET BEGINNING 2 WK PRIOR TO CARCINOGEN TREATMENT AND CONTINUING FOR 8 WK POST CARCINOGEN TREATMENT (STUDY D, Species: RAT, Strain/Sex: F344/MALE, Target Tissue: Type of Lesion: ESOPHAGUS: TUMOR, Dose [Carcinogen]: 0.5 MG/KG 1/WK FOR 15 WK, Promoter: NONE USED","100%, 0%, 100%, not calculated"
same,"tumour outcome (control, treated, inhibition, significance)","Carcinogen: N-NITROSOBENZYLMETHYLAMINE, 937-40-6, Dose [Inhibitor]: 0, 6 UMOL/G IN DIET BEGINNING 2 WK PRIOR TO CARCINOGEN TREATMENT AND CONTINUING FOR DURATION OF STUDY (STUDY DURATION: 2, Species: RAT, Strain/Sex: F344/MALE, Target Tissue: Type of Lesion: ESOPHAGUS: TUMORS, Dose [Carcinogen]: 0.5 MG/KG BW IN 0.1 ML OF DMSO 1/WK FOR 15 WK, Promoter: NONE USED","15/15 (100%), 0/15 (0%), 100%, not calculated"
same,"tumour outcome (control, treated, inhibition, significance)","Carcinogen: N-NITROSOBIS(2-OXOPROPYL)AMINE [60599-38-4], Dose [Inhibitor]: 3 UMOL IN DIET FOR 49 WK BEGINNING 2 WK POST LAST CARCINOGEN DOSE (STUDY DURATION: 52 WK), Species: HAMSTER, Strain/Sex: SYRIAN/FEMALE, Target Tissue: Type of Lesion: LIVER: CHOLANGIOCELLAR ADENOMA, Dose [Carcinogen]: 20 MG/KG BW 1X/WK FOR 2 WK (STUDY DURATION: 52 WK), Promoter: NONE","19/25 (76.0%), 20/28 (71.4%), 6%, not significant"
same,"tumour outcome (control, treated, inhibition, significance)","Carcinogen: N-NITROSOBIS(2-OXOPROPYL)AMINE [60599-38-4], Dose [Inhibitor]: 3 UMOL IN DIET FOR 49 WK BEGINNING 2 WK POST LAST CARCINOGEN DOSE (STUDY DURATION: 52 WK), Species: HAMSTER, Strain/Sex: SYRIAN/FEMALE, Target Tissue: Type of Lesion: LIVER: CHOLANGIOCELLULAR ADENOMA, Dose [Carcinogen]: 20 MG/KG BW 1X/WK FOR 2 WK (STUDY DURATION: 52 WK), Promoter: NONE","19/25 (76.0%), 23/28 (82.1%), -8%, not significant"
same,"tumour outcome (control, treated, inhibition, significance)","Carcinogen: N-NITROSOBIS(2-OXOPROPYL)AMINE [60599-38-4], Dose [Inhibitor]: 3 UMOL IN DIET FOR 49 WK BEGINNING 2 WK POST LAST CARCINOGEN DOSE (STUDY DURATION: 52 WK), Species: HAMSTER, Strain/Sex: SYRIAN/FEMALE, Target Tissue: Type of Lesion: LIVER: HEPATOCELLULAR ADENOMA, Dose [Carcinogen]: 20 MG/KG BW 1X/WK FOR 2 WK (STUDY DURATION: 52 WK), Promoter: NONE","18/25 (72.0%), 16/28 (57.1%), 21%, not significant"
